Assay results from US20170369892A1, “HORMONE DEGRADABLE CRISPR-BASED TRANSCRIPTION FACTORS” (University of Washington, priority 2016, published 2017).
“Also recorded” adds a separate entry of the source.

Tests used:
[1] = test system: ADCTF (auxin receiver) strain, minimal CYC1 promoter driving EGFP; test: Cytometry of ADCTF receiver yeast strains (GFP reporter) after auxin induction; format: cell-based, Saccharomyces cerevisiae
Excerpt: Synthetic, scalable, auxin-modulated transcription factors are provided. To link an auxin sensor to diverse transcriptional responses and targets, auxin degradable CRISPR transcription factors (ADCTFs) with three modular domains were designed (see FIG. 1A). In some embodiments, a core component of the ADCTFs can be the CRISPR-based transcription factor described by Farzadfard, et al. (“Tunable and multifunctional eukaryotic transcription factors based on CRISPR/Cas,” ACS synthetic biology 2.10 (2013): 604-613), wherein a dCas9 protein functions as a programmable DNA binding module. The dCas9 was fused to a transcriptional effector domain, in this case the transcriptional activator VP64, and to an IAA degron. In the presence of an AFB, ADCTFs should generally be ubiquitinated and degraded when exposed to auxin. The ADCTFs were tested by targeting them to activate the expression of EGFP from a minimal CYC1 promoter and observing deactivation of fluorescence upon the addition of auxin. […] Auxin dependent regulation was independent of the promoter being regulated by the ADCTF (see FIG. 6B). The observed effect was also reversible.
(§1) All cytometry measurements were acquired with an ACCURI™ C6 cytometer with attached CSAMPLER™ apparatus using 488 nm and 640 nm excitation lasers and a 533 nm (FL-1: YFP/GFP) emission filter. For experiments involving steady-state ADC behavior (see FIGS. 6A-7B) cultures were grown overnight in SC media with 1 nM beta-estradiol for ADC expression induction. The next morning they were diluted down 1:100 and then grown up for 5 hours and then induced with varying auxin concentrations from stock solutions. These cultures were then grown overnight and fluorescence was measured the next day. For the replicates, untreated cultures from the previous day's experiments were used as overnights to begin the next day's cultures.
For time course experiments, cultures were grown overnight in SC media with 1 nM beta-estradiol for ADC expression induction. The next morning two sets of parallel cultures were set up by diluting down the overnights 1:100. These were then grown up for 5 hours and then induced with 30 μM auxin and reads were taken every 30 minutes for approximately seven hours. A final steady state reading was taken the next day.
Cytometry data were analyzed using custom R scripts and the FLOWCORE™ package by first gating for the yeast diploid population and then generating mean fluorescence values for every point. These datasets were then collectively fit using the LOESS fitting function in R and metrics and error were derived from these fits. For the recovery experiments, the same protocol was used except the overnight cultures were grown up in SC with 1 nM beta-estradiol and 30 μM auxin.

[2] = test system: laboratory strains of yeast; details: grown in standard conditions; cited from earlier work
[3] = test system: UBQ1 promoter driving venus-luciferase reporter repressed by ADCTF; test: ADCTF-regulated venus-luciferase reporter in plants after auxin treatment; format: in vivo, Arabidopsis thaliana
Excerpt: FIG. 12A is a schematic of the genetic circuit that was transformed into Arabidopsis thaliana to test the function of the hormone degradable CRISPR based transcription factor (HDCTF). […] These complex together and cause repression of the UBQ1 promoter, which is driving the expression of a venus-luciferase fusion reporter with a nuclear localization tag fused to it. Auxin can interact with the degron domain of the ADCTF (a version of the HDCTF) to degrade the transcription factor and relieve repression.
FIG. 12B is graph showing the normalized luciferase reporter activity over time for two plants, one of which has an ADCTF with a functional degron and the other which has a ADCTF with a stabilized degron. The orange bar indicates when the plants were exposed to either an auxin (solid line) or control (dashed line) treatment. The box plot summarizes the behavior of several plant lines with the functional or stabilized degron ADCTFs eighty minutes after treatment.

[4] = test system: receiver cells (ADCTF, gRNA targeting minimal CYC1 promoter driving EGFP); test: Coculture of sender and receiver strains treated with IAM; format: cell-based, Saccharomyces cerevisiae; details: saturating IAM
Excerpt: FIG. 5A illustrates coculture of sender and receiver strains. Sender cells convert IAM into auxin that then diffuses out of sender cells and into receiver cells where it causes the degradation of ADCTFs, producing a drop in fluorescence.
Sender cells can produce a tunable auxin response in receiver cells. Sender and receiver cells were cocultured in different ratios to measure the effect of sender cell concentration on auxin signal production. Senders constitutively express iaaH and the receivers expressed an activating ADCTF and a gRNA targeting a minimal CYC1 promoter driving EGFP (see FIG. 5A). […] Three different receiver strains with a range of responses to auxin were tested with the sender strain. […] In addition, a 10% fraction of sender cells is sufficient for a significant change in fluorescence in receiver cells at steady state and a 50% fraction produces a nearly saturating signal (see FIGS. 5C and 5D).

[5] = test system: EYFP-IAA17|AFB2 auxin reporting strain expressing iaaH; test: Time-lapse cytometry of iaaH sender strain with EYFP-IAA17|AFB2 auxin reporter after IAM or auxin; format: cell-based, Saccharomyces cerevisiae
Excerpt: FIG. 3A illustrates an auxin sender strain design. The iaaH enzyme of Agrobacterium tumefaciens catalyzes the conversion of indole-3-acetamide (IAM) into auxin, inducing the degradation of proteins fused to an auxin degron. The iaaH enzyme (sender cells) was integrated into an auxin reporting strain (the EYFP-IAA17|AFB2 strain from Havens, et al. (2012) Plant Physiol. 160, 135-42) to test for internal auxin production.
Yeast can produce tunable levels of auxin via expression of Iaah from Agrobacterium tumefaciens. To generate an auxin producing strain, half of the IAM pathway from Agrobacterium tumefaciens was integrated into yeast (see Zhao, Y. (2010) Annu. Rev. Plant Biol. 61, 49-64). The IAM pathway is a two-step enzymatic process that converts tryptophan to IAM and then into auxin. The first step is via tryptophan-2-monooxygenase (iaaM, not examined here). The second step is catalyzed by indole-3-acetamide hydrolase (iaaH). To test whether yeast could produce auxin from IAM using only the second enzyme, the iaaH gene from the Agrobacterium tumefaciens Ti plasmid (see Pacurar, D. I., et al. (2011) Physiol. Mol. Plant Pathol. 76, 76-81) was integrated into an auxin reporting yeast strain (see FIG. 3A) containing a IAA-YFP fusion protein. After adding IAM, reporter degradation rates were measured via time-lapse cytometry (see FIG. 3B).
as §1

## auxin
[1]; 30 μM auxin, degron 17 with AFB2 or TIR1-DM, compared with pCYC1 target
  release of regulation with minimal pGAL promoter driving GFP: comparable release of regulation
[1]; time-lapse cytometry, ADCTF strain expressing gRNA
  GFP fluorescence level following addition of auxin: dropped to basal levels; also recorded: dropped to levels at or below the control (no gRNA) levels
[1]; wash-out after steady state
  reporter expression after auxin was removed: returned to its activated state
[2]
  effects on laboratory strains of yeast: does not have measurable effects
[3]; ADCTF with functional degron, eighty minutes after treatment
  normalized luciferase reporter activity: significant increase in reporter expression
[3]; root tip
  reporter expression in root tip (confocal microscopy): significant increase in reporter expression

## NC(=O)Cc1c[nH]c2ccccc12 [IAM, indole-3-acetamide]
[4]
  fluorescence / gene activation in receiver strain: dropped in fluorescence over time; also recorded: comparable to direct addition of auxin
[5]
  delay between addition of IAM and production of auxin: no significant delay
[5]; for a given molarity, compared with auxin
  auxin-induced degradation rate (t1/2) of reporter: comparable to that of native auxin
[5]; time-lapse cytometry
  fluorescence of sender cells following addition of IAM: decreased to basal levels
[5]; varying doses of IAM
  steady state fluorescence of sender cells: lower steady state fluorescence; also recorded: converge to those of auxin

B1: tir1-D/M: mutant of TIR1 F-box protein (protein, UniProt Q570C0 1-594, looked up, variant D170E M473L)
Protein TRANSPORT INHIBITOR …: MQKRIALSFPEEVLEHVFSFIQLDKDRNSVSLVCKSWYEIERWCRRKVFIGNCYAVSPATVIRRFPKVRSVELKGKPHFADFNLVPDGWGGYVYPWIEAMSSSYTWLEEIRLKRMVVTDDCLELIAKSFKNFKVLVLSSCEGFSTDGLAAIAATCRNLKELDLRESDVDEVSGHWLSHFPDTYTSLVSLNISCLASEVSFSALERLVTRCPNLKSLKLNRAVPLEKLATLLQRAPQLEELGTGGYTAEVRPDVYSGLSVALSGCKELRCLSGFWDAVPAYLPAVYSVCSRLTTLNLSYATVQSYDLVKLLCQCPKLQRLWVLDYIEDAGLEVLASTCKDLRELRVFPSEPFVMEPNVALTEQGLVSVSMGCPKLESVLYFCRQMTNAALITIARNRPNMTRFRLCIIEPKAPDYLTLEPLDIGFGAIVEHCKDLRRLSLSGLLTDKVFEYIGTYAKKMEMLSVAFAGDSDLGLHHVLSGCDSLRKLEIRDCPFGDKALLANASKLETMRSLWMSSCSVSFGACKLLGQKMPKLNVEVIDERGAPDSRPESCPVERVFIYRTVAGPRFDMPGFVWNMDQDSTMRFSRQIITTNGL
[1]; 30 μM auxin induction, ranking across library
  degradation kinetics (time to 50% degradation): fastest overall
[1]; steady state, dose response twenty-four hours after induction
  auxin sensitivity range conferred by F-box protein: narrowest
